# From PMC2744931, “Glutamate Uptake Triggers Transporter-Mediated GABA Release from Astrocytes” (PLoS ONE, 2009)
# Where two headings read alike, the source gives them in different places.
# Legend:
# [1] = test system: GABA transport in rat cerebrocortical NPMV (GAT-2/3); assay: [3H]GABA uptake in rat cerebrocortical native plasma membrane vesicles (NPMV) in the presence of 100 µM NNC-711; format: biochemical; details: for effect on GABA transport in rat cortical NPMV: 10 min preincubation, 100 µM NNC-711 (Figure 1B); for modulation of the effect of Glu on GABA transport / cytosolic GABA level in rat cortical NPMV: 100 µM NNC-711 present
# Description: Cerebral cortices of 4–6 weeks old male Wistar rats (Toxicoop, Hungary) and frozen human brain tissue samples (Hungarian Brain Tissue Bank, Budapest) were used to prepare NPMV fractions, that contain numerous membrane vesicles of different sizes and shapes, a few intact synaptosomes and free mitochondria. […] Afterward, preincubated solution was incubated with [^3H]GABA (10 nM, Amersham) and GABA (90 nM, Sigma) for 1 min. In case of [^3H]β-alanine uptake, incubation solution contained 100 nM [^3H]β-alanine (Amersham) and 900 nM β-alanine (Sigma). After the incubation, samples were immediately filtered through glass fiber filters and washed twice with ice-cold HEPES buffer. The [^3H]GABA level inside the plasma membrane vesicles was determined by liquid scintillation method. Although this method is generally used to measure GABA uptake, we applied it to follow GABA release due to the simplicity and reliability of the assay. We also determined GABA release by preloading [^3H]GABA into NPMV vesicles and measuring the [^3H]GABA level in the intracellular and extracellular milieu. […] Non-specific uptake was determined in the presence of 1 mM guvacine. The radioactivity of samples was counted in HiSafe 3 (Perkin Elmer) scintillation mixture.
# GAT-3 = test system: GAT-3; set-up: method as in Borden,L.A. (1996) Neurochem Int. 4: 335–356; details: ref Borden,L.A. (1996) Neurochem Int. 4: 335–356; cited from earlier work
# GAT-2 = test system: GAT-2; set-up: method as in Borden,L.A. (1996) Neurochem Int. 4: 335–356; details: ref Borden,L.A. (1996) Neurochem Int. 4: 335–356; cited from earlier work
# BGT = test system: BGT; set-up: method as in Borden,L.A. (1996) Neurochem Int. 4: 335–356; details: ref Borden,L.A. (1996) Neurochem Int. 4: 335–356; cited from earlier work
# GAT-1 = test system: GAT-1; set-up: method as in Borden,L.A. (1996) Neurochem Int. 4: 335–356; details: ref Borden,L.A. (1996) Neurochem Int. 4: 335–356; cited from earlier work
# rat hippocampus = assay: In vivo microdialysis and HPLC amino acid detection in the hippocampus
# Description: Male Wistar rats (300–400 g) were anaesthetized with halothane (1% in air) and microdialysis probes were implanted into the ventral hippocampus (A: −5.0, L: 5.0, V: −8.0) as described previously. To minimize tissue damage, the final position of the probes was reached slowly, in not less than 20 min. Perfusion of artificial cerebrospinal fluid, containing 144 mM NaCl, 3 mM KCl, 1 mM MgCl2, 2 mM CaCl2 (pH 7.4), was performed at a rate of 1 µl/min. The dialysate samples during 20 min were stored at −20°C. To establish the background amino acid concentration, each experiment started with the collection of three control samples with <10% variation. NNC-711 was applied bilaterally for 60 min followed by the simultaneous application of t-PDC and NNC-711 for 60 min. Concentration of amino acids was measured by pre-column derivatization of primary amino acids with orthophthalaldehyde (OPA, Sigma). Derivatization was performed at pH 10.4 in the presence of mercaptoethanol. OPA-derivatized amino acids were detected with fluorescence detector excitation wavelength 340 nm and emission wavelength 440 nm. Because of the instability of OPA derivatives, the HPLC technique was automated on an HP 1100 series system. Amino acids were separated on HP Hypersyl ODS reversed-phase columns (200×2.1 mm) filled with 5 µm C-18 spherical packing material. Eluent A was 0.1 M phosphate buffer containing 0.5% (vol/vol) tetrahydrofuran (Merck), pH 5.6, while eluent B contained 70% acetonitrile (Merck) in eluent A, pH 5.6. The gradient profile was: 12% B at 0 min, 23% B at 9 min, 36% B at 18 min, 100% B at 20 min, 100% B at 25 min and 12% B at 30 min. The column equilibration time was 8 min. External standards of 10 µM amino acids were injected after every 20 samples. Chromatograms were evaluated with HP Chem-Station software. Concentration of GABA measured in dialysate samples collected during drug applications were related to averaged GABA concentration of control samples collected for an hour prior to drug application and were given as percent changes.
# [2] = test system: acute rat hippocampal slices; assay: [3H]GABA efflux from acute rat hippocampal slices (microvolume superfusion); format: cell-based; details: for effect on Glu-induced GABA release in hippocampal slices: DL-AP5 50 µM, CNQX 10 µM, (S)-MCPG 500 µM applied as Glu receptor antagonists
# Description: Radiolabeling of 400 µm thick acute slices was conducted in 200 µl of ACSF in a glass tube. […] To preferentially label the cytosolic over the vesicular pools, incubation of slices at 30°C lasted for 10 min [54]. Slices were washed with fresh ACSF containing GABA-T inhibitors, thereafter placed in a custom-built closed micro-volume (50 µl) chamber secured in a water bath thermostated at 30°C [55]. […] The superfusate was collected in 0.5 ml fractions. After washing for 10 min, 10 fractions were collected to define the basal release of radioactivity (‘pre-stimulus’). At this point, the hippocampal slice was exposed to 100 µM Glu for a period of 10 min (‘drug application’), followed by further 10 min of washing with ACSF (‘washout’). Radioactivity of each 0.5 ml fraction counted in 3 ml HiSafe 3 scintillation mixture was expressed as the percentage of the actual radioactivity content of the slice (fractional release). Fractional release data from individual slices were normalized to a first order exponential curve (obtained by fitting the pre-stimulus and the last 3 washout values). Normalized percent efflux data from fractions of ‘pre-stimulus’ (1–10 min) versus ‘drug application’ (11–20 min) periods were averaged and compared by statistical analysis.
# [3] = test system: acute rat hippocampal slices; assay: as above; format: cell-based; details: for alteration of [GABA]o during blockade of GAT-2/3: no exogenous Glu, n = 5
# hippocampus = details: cited from earlier work
# [4] = rat cortical NPMV, in the presence of NNC-711, read-out: IC50, effect on GABA transport
# [5] = GABA transport in the presence of 100 µM NNC-711, present study, read-out: IC50 Rat cerebrocortical NPMV
# [6] = 100 µM SNAP-5114, nominally Mg2+-free ACSF
molecule,measurement,setting,value
N[C@@H](CO)C(=O)O [L-Ser],IC50,[1]; [4],> 1000 µM
N[C@@H](CC(=O)O)C(=O)O [L-Asp],effect on GABA transport in rat cortical NPMV,[1],able to affect GABA transport
NCCC(=O)O [β-alanine],IC50,GAT-3,110 µM
same,IC50,GAT-2,66 µM
same,IC50,BGT,1100 µM
same,IC50,GAT-1,2920 µM
same,IC50,[1]; [5],26 ± 4 µM
N[C@H](CCC(=O)O)C(=O)O [D-Glu],effect on GABA transport in rat cortical NPMV,[1],able to affect GABA transport
N[C@H](CO)C(=O)O [D-Ser],IC50,[1]; [4],> 1000 µM
O=C(O)C1CCCN(CCC=C(c2ccccc2)c2ccccc2)C1 (centres unmarked) [SKF89976A],IC50,GAT-3,4390 µM
same,IC50,GAT-2,550 µM
same,IC50,BGT,7210 µM
same,IC50,GAT-1,0.64 µM
same,IC50,[1]; [5],372 ± 9 µM
CC(C)C[C@@H](N)C(=O)O [D-Leu],IC50,[1]; [4],> 1000 µM
"O=C(O)C1=CCCN(CCON=C(c2ccccc2)c2ccccc2)C1 [NNC-711, 1,2,5,6-tetrahydro-1-[2-[[(diphenylmethylene)amino]oxy]ethyl]-3-pyridinecarboxylic acid]",[Arginine]o in the rat hippocampus in vivo,"rat hippocampus; control for non-specific release, n = 10",100±25 % of control
same,[GABA]o in the rat hippocampus in vivo,"rat hippocampus; microdialysis application, t-PDC applied together with NNC-711, n = 10",160±18 % of control
same,reduction of the [3H]GABA uptake,"[1]; 100 µM NNC-711, NPMV fractions, n = 51",86±3%
"C[N+]1(C)CCc2cc3c(cc2[C@H]1[C@@H]1OC(=O)c2c1ccc1c2OCO1)OCO3.[I-] [(1S,9R)-bicuculline methiodide]",modulation of the effect of Glu on GABA transport / cytosolic GABA level in rat cortical NPMV,[1],did not modulate the effect of Glu on the cytosolic GABA level
NCCc1c[nH]c2ccc(O)cc12 [serotonin],IC50,[1]; [4],> 1000 µM
NCCc1ccc(O)c(O)c1 [dopamine],IC50,[1]; [4],> 1000 µM
"C[C@@](N)(C(=O)O)c1ccc(C(=O)O)cc1 [(S)-MCPG, (S)-α-methyl-4-carboxyphenylglycine]",effect on Glu-induced GABA release in hippocampal slices,[2],partially inhibited
O=C(O)CCC(=O)O [succinate],IC50,"[1]; read-out: IC50, effect on GABA transport",> 1000 µM
"CC(C)[C@H]1CN[C@H](C(=O)O)[C@H]1CC(=O)O [DHK, dihydrokainic acid]",modulation of the effect of Glu on GABA transport / cytosolic GABA level in rat cortical NPMV,[1],significantly reduced
"6-cyano-7-nitroquinoxaline-2,3-dione [CNQX]",effect on Glu-induced GABA release in hippocampal slices,[2],partially inhibited
N[C@@H](CS(=O)(=O)O)C(=O)O [cysteic acid],effect on GABA transport in rat cortical NPMV,[1],able to affect GABA transport
NCCS(=O)O [Hypotaurine],IC50,GAT-3,73 µM
same,IC50,GAT-2,52 µM
same,IC50,BGT,536 µM
same,IC50,GAT-1,1010 µM
same,IC50,[1]; [5],20 ± 0.4 µM
NCCS(=O)(=O)O [Taurine],IC50,GAT-3,2860 µM
same,IC50,GAT-2,1270 µM
same,IC50,BGT,> 1000 µM
same,IC50,GAT-1,> 1000 µM
same,IC50,[1]; [5],400 ± 7 µM
"COc1ccc(C(OCCN2CCC[C@H](C(=O)O)C2)(c2ccc(OC)cc2)c2ccc(OC)cc2)cc1 [SNAP-5114, 1-[2-[tris(4-methoxyphenyl)methoxy]ethyl]-(S)-3-piperidinecarboxylic acid]",reduction of [3H]GABA release compared to the pre-application period,[3]; [6],10%
same,alteration of [GABA]o during blockade of GAT-2/3,[3]; [6],90±4 % of pre-application control
same,alteration of [GABA]o during blockade of GAT-2/3,"[3]; 100 µM SNAP-5114, normal ACSF",100±6 % of pre-application control
same,elevation of [GABA]o ([3H]GABA efflux),"[2]; Glu-induced release in the presence of SNAP-5114, n = 4",109±4 % of pre-stimulus control
"NC(CCCP(=O)(O)O)C(=O)O (racemic) [DL-AP5, DL-2-amino-5-phosphonopentanoic acid]",effect on Glu-induced GABA release in hippocampal slices,[2],partially inhibited
[Cd+2] [Cd^2+],elevation of [GABA]o ([3H]GABA efflux),"[2]; Glu-induced release in the presence of 50 µM Cd2+ salt in the superfusion, n = 3",143±10 % of pre-stimulus control
O=C(O)C1CCCNC1 (centres unmarked) [Nipecotic acid],IC50,[1]; [5],28 ± 0.5 µM
"N[C@H](C(=O)O)[C@H](OCc1ccccc1)C(=O)O (racemic) [TBOA, DL-threo-β-benzyloxyaspartic acid]",neuronal damage after in vivo administration in the hippocampus,hippocampus,induce neuronal damage in the CA1 and the dentate gyrus
same,elevation of [GABA]o ([3H]GABA efflux),"[2]; Glu-induced release in the presence of 100 µM TBOA, n = 4",123±10 % of pre-stimulus control
same,elevation of [GABA]o ([3H]GABA efflux),"[2]; Glu-induced release in the presence of 1000 µM TBOA, n = 4",109±1 % of pre-stimulus control
same,modulation of the effect of Glu on GABA transport / cytosolic GABA level in rat cortical NPMV,[1],further reduced
penicillin,IC50,[1]; [4],> 1000 µM
NC[C@H](CC(=O)O)c1ccc(Cl)cc1 [(R)-baclofen],modulation of the effect of Glu on GABA transport / cytosolic GABA level in rat cortical NPMV,[1],did not modulate the effect of Glu on the cytosolic GABA level
CC(C)C[C@H](N)C(=O)O [L-Leu],IC50,[1]; [4],> 1000 µM
N[C@H](CC(=O)O)C(=O)O [D-Asp],effect on GABA transport in rat cortical NPMV,[1],able to affect GABA transport
C[N+](C)(C)CC(=O)O [Betaine],IC50,GAT-3,> 1000 µM
same,IC50,GAT-2,> 1000 µM
same,IC50,BGT,173 µM
same,IC50,GAT-1,> 1000 µM
same,IC50,[1]; [5],> 1000 µM
